Reference: PubChem BioAssay (NCI)
Where “and” joins values, the source holds several entries; their conditions need not be identical. Equal values may be shown once.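 In this assay, cells in 96-well plates receive the compound at five concentrations for 48 hours. Endpoints are linearly interpolated between the surrounding concentrations. Here, GI50 denotes the concentration required for 50% inhibition of growth. At the TGI there is no net growth.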

What was measured:
Test in all cases: NCI-60 cell line screen, 48 h
A498 renal = tested on: A498 renal
CCRF-CEM leukemia = tested on: CCRF-CEM leukemia
HCT-116 colon = tested on: HCT-116 colon
HS 578T breast = tested on: HS 578T breast
MDA-MB-231 breast = tested on: MDA-MB-231 breast
NCI-H23 lung = tested on: NCI-H23 lung
PC-3 prostate = tested on: PC-3 prostate
SK-MEL-28 melanoma = tested on: SK-MEL-28 melanoma
SNB-75 CNS = tested on: SNB-75 CNS
T-47D breast = tested on: T-47D breast
TK-10 renal = tested on: TK-10 renal

Compound: O=C1c2ccccc2C(=O)c2c1oc1cc(O)c(Cl)cc21
- TGI (A498 renal): 34 µM
- TGI (CCRF-CEM leukemia): 55.3 µM
- TGI (HCT-116 colon): 15.1 µM
- TGI (HS 578T breast): 15.5 µM
- TGI (MDA-MB-231 breast): 33.9 µM
- TGI (NCI-H23 lung): 3.27 µM
- TGI (PC-3 prostate): 29.6 µM
- TGI (SK-MEL-28 melanoma): 7.62 µM
- TGI (SNB-75 CNS): 10.4 µM
- TGI (T-47D breast): 48.6 µM
- TGI (TK-10 renal): 38.5 µM

Compound: Nc1c(F)c(F)c2c(c1F)N(CCCCCl)c1ccccc1S2
- TGI (A498 renal): > 100 µM
- TGI (CCRF-CEM leukemia): > 100 µM
- TGI (HCT-116 colon): > 100 µM
- TGI (HS 578T breast): > 100 µM
- TGI (MDA-MB-231 breast): > 100 µM
- TGI (NCI-H23 lung): > 100 µM
- TGI (PC-3 prostate): > 100 µM
- TGI (SK-MEL-28 melanoma): > 100 µM
- TGI (SNB-75 CNS): > 100 µM
- TGI (T-47D breast): > 100 µM
- TGI (TK-10 renal): > 100 µM

Compound: O=c1ccn(C/C=C/c2ccccc2)c(=S)n1C/C=C/c1ccccc1
- TGI (A498 renal): > 100 µM
- TGI (CCRF-CEM leukemia): 62.9 µM
- TGI (HCT-116 colon): > 100 µM
- TGI (HS 578T breast): > 100 µM
- TGI (MDA-MB-231 breast): > 100 µM
- TGI (NCI-H23 lung): > 100 µM
- TGI (PC-3 prostate): > 100 µM
- TGI (SK-MEL-28 melanoma): > 100 µM
- TGI (SNB-75 CNS): > 100 µM
- TGI (T-47D breast): > 100 µM
- TGI (TK-10 renal): > 100 µM

Compound: CC1(C)CC(=O)c2c(-c3ccc(Cl)cc3)c(C#N)c(=S)n(C3OC(CO)C(O)C(O)C3O)c2C1 (stereo unspecified)
- TGI (A498 renal): > 100 µM
- TGI (CCRF-CEM leukemia): > 100 µM
- TGI (HCT-116 colon): > 100 µM
- TGI (HS 578T breast): > 100 µM
- TGI (MDA-MB-231 breast): > 100 µM
- TGI (NCI-H23 lung): > 100 µM
- TGI (PC-3 prostate): 52.1 µM
- TGI (SK-MEL-28 melanoma): > 100 µM
- TGI (SNB-75 CNS): 98.4 µM
- TGI (T-47D breast): 89.6 µM
- TGI (TK-10 renal): > 100 µM

Compound: CN(C)c1n2c3ccc([N+](=O)[O-])cc3n3c(N(C)C)[n+]4ccccc4c3c2c2cccc[n+]12
- TGI (A498 renal): > 100 µM
- TGI (CCRF-CEM leukemia): > 100 µM
- TGI (HCT-116 colon): > 100 µM
- TGI (HS 578T breast): > 100 µM
- TGI (MDA-MB-231 breast): > 100 µM
- TGI (NCI-H23 lung): > 100 µM
- TGI (PC-3 prostate): > 100 µM
- TGI (SK-MEL-28 melanoma): > 100 µM
- TGI (SNB-75 CNS): > 100 µM
- TGI (T-47D breast): > 100 µM
- TGI (TK-10 renal): > 100 µM

Compound: CN1N=C(c2ccncc2)OC1c1cccc(F)c1 (stereo unspecified)
- TGI (A498 renal): > 100 µM
- TGI (CCRF-CEM leukemia): > 100 µM
- TGI (HCT-116 colon): > 100 µM
- TGI (HS 578T breast): > 100 µM
- TGI (MDA-MB-231 breast): > 100 µM
- TGI (NCI-H23 lung): > 100 µM
- TGI (PC-3 prostate): > 100 µM
- TGI (SK-MEL-28 melanoma): > 100 µM
- TGI (SNB-75 CNS): > 100 µM
- TGI (T-47D breast): > 100 µM
- TGI (TK-10 renal): > 100 µM

Compound: COc1ccc(COCC[C@H](C)OC2OC(CO[Si](C)(C)C(C)(C)C)C(O)C(O)C2O)cc1 (stereo partly specified)
- TGI (A498 renal): > 100 µM
- TGI (CCRF-CEM leukemia): > 100 µM
- TGI (HCT-116 colon): > 100 µM
- TGI (HS 578T breast): > 100 µM
- TGI (MDA-MB-231 breast): > 100 µM
- TGI (NCI-H23 lung): > 100 µM
- TGI (PC-3 prostate): > 100 µM
- TGI (SK-MEL-28 melanoma): > 100 µM
- TGI (SNB-75 CNS): > 100 µM
- TGI (T-47D breast): > 100 µM
- TGI (TK-10 renal): > 100 µM

Compound: COc1ccc2nc3cccc([N+](=O)[O-])c3c(NCCC(=O)O)c2c1
- TGI (A498 renal): > 10 µM
- TGI (CCRF-CEM leukemia): > 10 µM
- TGI (HCT-116 colon): > 10 µM
- TGI (HS 578T breast): > 10 µM
- TGI (MDA-MB-231 breast): > 10 µM
- TGI (NCI-H23 lung): > 10 µM
- TGI (PC-3 prostate): > 10 µM
- TGI (SK-MEL-28 melanoma): > 10 µM
- TGI (SNB-75 CNS): > 10 µM
- TGI (T-47D breast): > 10 µM
- TGI (TK-10 renal): > 10 µM

Compound: c1ccc2c(c1)CCN1CCc3ccccc3C1C2 (stereo unspecified)
- TGI (A498 renal): > 100 µM
- TGI (CCRF-CEM leukemia): > 100 µM
- TGI (HCT-116 colon): > 100 µM
- TGI (HS 578T breast): > 100 µM
- TGI (MDA-MB-231 breast): > 100 µM
- TGI (NCI-H23 lung): > 100 µM
- TGI (PC-3 prostate): > 100 µM
- TGI (SK-MEL-28 melanoma): > 100 µM
- TGI (SNB-75 CNS): > 100 µM
- TGI (T-47D breast): > 100 µM
- TGI (TK-10 renal): > 100 µM

Compound: COc1ccc(OC(=O)N2C/C(=C\c3ccccc3)C(=O)/C(=C/c3ccccc3)C2)cc1
- TGI (A498 renal): 10.6 µM
- TGI (CCRF-CEM leukemia): 6.73 µM
- TGI (HCT-116 colon): 1.19 µM
- TGI (HS 578T breast): 7.33 µM
- TGI (MDA-MB-231 breast): 7.83 µM
- TGI (NCI-H23 lung): 17.1 µM
- TGI (PC-3 prostate): 11.2 µM
- TGI (SK-MEL-28 melanoma): 4.97 µM
- TGI (SNB-75 CNS): 32.6 µM
- TGI (T-47D breast): 48.1 µM
- TGI (TK-10 renal): 44 µM

Compound: CSC12c3cc(C)n(-c4ccc(I)cc4)c3CC(C)(C)CN1C(=O)C2Oc1ccccc1 (stereo unspecified)
- TGI (A498 renal): > 100 µM
- TGI (CCRF-CEM leukemia): > 100 µM
- TGI (HCT-116 colon): > 100 µM
- TGI (HS 578T breast): > 100 µM
- TGI (MDA-MB-231 breast): > 100 µM
- TGI (NCI-H23 lung): > 100 µM
- TGI (PC-3 prostate): > 100 µM
- TGI (SK-MEL-28 melanoma): > 100 µM
- TGI (SNB-75 CNS): > 100 µM
- TGI (T-47D breast): > 100 µM
- TGI (TK-10 renal): > 100 µM

Compound: COC(=O)CN1Cc2cc(C)cc(c2O)CN(CC(=O)OC)Cc2cc(C)cc(c2O)CN(CC(=O)OC)Cc2cc(C)cc(c2O)CN(CC(=O)OC)Cc2cc(C)cc(c2O)C1
- GI50 (A498 renal): > 100 µM
- TGI (A498 renal): 50 µM and > 100 µM
- GI50 (CCRF-CEM leukemia): 5.37 µM
- TGI (CCRF-CEM leukemia): 50 µM and 33.2 µM
- GI50 (HCT-116 colon): 27.7 µM
- TGI (HCT-116 colon): 50 µM and > 100 µM
- GI50 (HS 578T breast): > 100 µM
- TGI (HS 578T breast): 50 µM and > 100 µM
- GI50 (MDA-MB-231 breast): 34.7 µM
- TGI (MDA-MB-231 breast): 50 µM and > 100 µM
- TGI (NCI-H23 lung): 50 µM and > 100 µM
- TGI (PC-3 prostate): 50 µM and > 100 µM
- GI50 (SK-MEL-28 melanoma): 27.9 µM
- TGI (SK-MEL-28 melanoma): 50 µM and > 100 µM
- GI50 (SNB-75 CNS): 42.5 µM
- TGI (SNB-75 CNS): 50 µM and > 100 µM
- GI50 (T-47D breast): 36.4 µM
- TGI (T-47D breast): 50 µM and > 100 µM
- GI50 (TK-10 renal): > 100 µM
- TGI (TK-10 renal): 50 µM and > 100 µM
